Results reported in the NIST ThermoML archive (doi:10.1021/je060339m).

Conditions: Liquid

CCCCOC(C)=O [butyl ethanoate]
mass density [kg/m3]
Conditions	298.15 K	303.15 K	308.15 K	313.15 K	318.15 K	323.15 K	328.15 K	333.15 K	338.15 K
100 kPa	875.7	870.4	865.1	859.9	854.9	849.7	844.6	839.6	834.5
1000 kPa	876.3	871.1	865.9	860.8	855.7	851	845.7	840.7	835.6
2000 kPa	877.2	872	866.9	861.7	856.7	852	846.8	841.8	836.7
3000 kPa	878	872.9	867.8	862.7	857.8	853	847.9	842.9	837.9
3100 kPa	878.1	873	867.8	862.7	857.9	853.1	848	842.9	838
5000 kPa	879.9	874.7	869.6	864.6	859.6	854.6	849.7	844.9	840.1
10000 kPa	883.8	878.8	873.9	869	864.2	859.4	854.6	850	845.5
15000 kPa	887.6	882.8	878	873.2	868.5	863.9	859.3	854.8	850.1
20000 kPa	891.3	886.5	881.9	877.2	872.6	868.1	863.6	859.3	855
25000 kPa	894.9	890.2	885.6	881	876.5	872.3	867.8	863.6	859.5
30000 kPa	899.1	894.4	890	885.6	881.3	877.3	872.5	868.6	864.6
35000 kPa	903.7	899.1	894.8	890.5	886.3	882.4	877.7	873.9	–
